Measurements: patent US10189841B2, “Purinones as ubiquitin-specific protease 1 inhibitors” (Forma Therapeutics, Inc., priority 2015, dated 2019)

Target: USP1 (construct USP1 (I-785, GG670, 671AA)/UAF1 (I-677)-Flag) (Homo sapiens (Human), UniProt O94782, G670A/G671A)
Test: Ubiquitin-Rhodamine 110 assay for USP1 activity
Format: biochemical
Conditions: USP1/UAF1 25 pM, Ub-Rh110 25 nM, 30 min preincubation
Outline: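 Ub-Rh110 (25 nM, ≪Km) cleavage read at ex 485/em 535 in Tris pH 8.0, CaCl2, GSH, Prionex, Triton X-100. The screen used 10 µM compound, 100 pM USP1/UAF1 and 45 min at RT.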

Chain of USP1 (construct USP1 (I-785, GG670, 671AA)/UAF1 (I-677)-Flag) (O94782 whole entry G670A/G671A): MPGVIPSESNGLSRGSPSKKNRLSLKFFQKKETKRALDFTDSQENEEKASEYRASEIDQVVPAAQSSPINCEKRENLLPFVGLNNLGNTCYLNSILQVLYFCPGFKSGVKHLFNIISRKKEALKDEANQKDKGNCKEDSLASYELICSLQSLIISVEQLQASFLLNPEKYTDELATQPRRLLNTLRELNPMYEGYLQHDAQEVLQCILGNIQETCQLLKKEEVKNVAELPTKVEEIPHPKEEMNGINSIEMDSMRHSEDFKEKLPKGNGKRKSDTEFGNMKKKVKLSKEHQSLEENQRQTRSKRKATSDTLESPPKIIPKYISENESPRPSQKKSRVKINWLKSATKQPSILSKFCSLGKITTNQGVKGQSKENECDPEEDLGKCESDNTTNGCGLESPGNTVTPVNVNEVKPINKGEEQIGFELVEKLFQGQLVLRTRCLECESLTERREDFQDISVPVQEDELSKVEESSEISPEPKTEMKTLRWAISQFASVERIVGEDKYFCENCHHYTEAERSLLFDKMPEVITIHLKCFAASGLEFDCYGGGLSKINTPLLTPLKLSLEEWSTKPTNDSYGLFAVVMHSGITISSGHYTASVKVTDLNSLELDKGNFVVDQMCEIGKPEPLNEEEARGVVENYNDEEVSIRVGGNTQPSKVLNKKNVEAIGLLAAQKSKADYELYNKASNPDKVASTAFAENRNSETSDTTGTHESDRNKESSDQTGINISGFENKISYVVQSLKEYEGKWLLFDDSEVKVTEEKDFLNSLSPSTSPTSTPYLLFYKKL
Chain of USP1 (construct USP1 (I-785, GG670, 671AA)/UAF1 (I-677)-Flag) (Q8TAF3 whole entry partner): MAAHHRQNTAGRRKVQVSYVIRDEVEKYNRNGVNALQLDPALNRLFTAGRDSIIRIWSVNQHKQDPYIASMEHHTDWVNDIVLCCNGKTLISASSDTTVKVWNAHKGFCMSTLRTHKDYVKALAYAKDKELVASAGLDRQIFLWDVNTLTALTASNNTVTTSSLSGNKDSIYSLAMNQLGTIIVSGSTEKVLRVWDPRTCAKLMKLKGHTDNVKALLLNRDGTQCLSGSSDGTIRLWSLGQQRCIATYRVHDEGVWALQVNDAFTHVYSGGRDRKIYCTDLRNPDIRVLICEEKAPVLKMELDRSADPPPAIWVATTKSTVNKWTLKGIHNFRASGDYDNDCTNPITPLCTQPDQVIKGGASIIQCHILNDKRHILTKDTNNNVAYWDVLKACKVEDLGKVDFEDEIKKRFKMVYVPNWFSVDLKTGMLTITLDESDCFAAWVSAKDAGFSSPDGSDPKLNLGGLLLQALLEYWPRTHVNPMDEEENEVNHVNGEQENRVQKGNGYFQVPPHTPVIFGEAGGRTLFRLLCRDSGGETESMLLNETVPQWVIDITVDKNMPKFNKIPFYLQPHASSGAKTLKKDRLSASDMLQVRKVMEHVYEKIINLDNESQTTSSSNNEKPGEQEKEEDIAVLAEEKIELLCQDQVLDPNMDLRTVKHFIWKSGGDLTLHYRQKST

Structure (SMILES) | IC50 [µM]
CC(C)c1ccccc1-c1ncc2[nH]c(=O)n(Cc3ccc(-c4cnn(C5CCOCC5)c4)cc3)c2n1 [Compound I-519, 2-(2-Isopropylphenyl)-9-(4-(1-(tetrahydro-2H-pyran-4-yl)-1H-pyrazol-4-yl)benzyl)-7,9-dihydro-8H-purin-8-one] | 0.2 to 2
CC(C)c1ccccc1-c1ncc2[nH]c(=O)n(Cc3ccc(-c4cnn(CCN(C)C)c4)cc3)c2n1 [Compound I-520, 9-(4-(1-(2-(Dimethylamino)ethyl)-1H-pyrazol-4-yl)benzyl)-2-(2-isopropylphenyl)-7,9-dihydro-8H-purin-8-one] | 0.2 to 2
CC(C)c1ccccc1-c1ncc2[nH]c(=O)n(Cc3ccc(-c4cn(CCN(C)C)nn4)cc3)c2n1 [Compound I-521, 9-(4-(1-(2-(Dimethylamino)ethyl)-1H-1,2,3-triazol-4-yl)benzyl)-2-(2-isopropylphenyl)-7,9-dihydro-8H-purin-8-one] | 0.2 to 2
CC(C)c1ccccc1-c1ncc2[nH]c(=O)n(Cc3ccc(-c4cn(CCO)nn4)cc3)c2n1 [Compound I-522, 9-(4-(1-(2-Hydroxyethyl)-1H-1,2,3-triazol-4-yl)benzyl)-2-(2-isopropylphenyl)-7,9-dihydro-8H-purin-8-one] | 0.2 to 2
CC(C)c1ccccc1-c1ncc2[nH]c(=O)n(Cc3ccc(-c4cn[nH]n4)cc3)c2n1 [Compound I-523, 9-(4-(1H-1,2,3-triazol-5-yl)benzyl)-2-(2-isopropylphenyl)-7,9-dihydro-8H-purin-8-one] | 0.05 to 0.2
COC(=O)c1ccccc1-c1ncc2[nH]c(=O)n(Cc3ccc(-c4nc(C(F)(F)F)cn4C)cc3)c2n1 [Compound I-524, Methyl 2-(9-(4-(1-Methyl-4-(trifluoromethyl)-1H-imidazol-2-yl)benzyl)-8-oxo-8,9-dihydro-7H-purin-2-yl)benzoate] | < 0.05
Cn1cc(C(F)(F)F)nc1-c1ccc(Cn2c(=O)[nH]c3cnc(-c4ccccc4C(C)(C)O)nc32)cc1 [Compound I-525, 2-(2-(2-hydroxypropan-2-yl)phenyl)-9-(4-(1-methyl-4-(trifluoromethyl)-1H-imidazol-2-yl)benzyl)-7,9-dihydro-8H-purin-8-one] | < 0.05
Cn1cc(C(F)(F)F)nc1-c1ccc(Cn2c(=O)[nH]c3cnc(-c4ccccc4C4(O)CC4)nc32)cc1 [Compound I-526, 2-(2-(1-Hydroxycyclopropyl)phenyl)-9-(4-(1-methyl-4-(trifluoromethyl)-1H-imidazol-2-yl)benzyl)-7,9-dihydro-8H-purin-8-one] | < 0.05
CCC(=O)c1ccccc1-c1ncc2[nH]c(=O)n(Cc3ccc(-c4nc(C(F)(F)F)cn4C)cc3)c2n1 [Compound I-527, 9-(4-(1-methyl-4-(trifluoromethyl)-1H-imidazol-2-yl)benzyl)-2-(2-propionylphenyl)-7,9-dihydro-8H-purin-8-one] | 0.2 to 2
CC(C)(O)c1ccccc1-c1ncc2[nH]c(=O)n(Cc3ccc(-n4cccn4)cc3)c2n1 [Compound I-528, 9-(4-(1H-Pyrazol-1-yl)benzyl)-2-(2-(2-hydroxypropan-2-yl)phenyl)-7,9-dihydro-8H-purin-8-one] | 0.2 to 2
CC(C)c1ccccc1-c1ncc2c(n1)n(Cc1ccc(-c3ncc[nH]3)cc1)c(=O)n2C [Compound I-529, 9-(4-(1H-Imidazol-2-yl)benzyl)-2-(2-isopropylphenyl)-7-methyl-7,9-dihydro-8H-purin-8-one] | 0.05 to 0.2
CC(C)c1ccccc1-c1ncc2c(n1)n(Cc1ccc(-n3cccn3)cc1)c(=O)n2C(C)C(=O)O (stereo not shown) [Compound I-530, 2-(9-(4-(1H-Pyrazol-1-yl)benzyl)-2-(2-isopropylphenyl)-8-oxo-8,9-dihydro-7H-purin-7-yl)propanoic acid] | 0.2 to 2
CNc1nc(-c2cccnc2OC(F)F)nc2c1[nH]c(=O)n2Cc1ccc(-c2nc(C(F)(F)F)cn2C)cc1 [Compound I-531, 2-(2-(Difluoromethoxy)pyridin-3-yl)-9-(4-(1-methyl-4-(trifluoromethyl)-1H-imidazol-2-yl)benzyl)-6-(methylamino)-7,9-dihydro-8H-purin-8-one] | < 0.05
